# Molecular target: T1, human MR (Homo sapiens, UniProt P08235)
# T1 construct: The full length human MR gene is cloned from a human kidney or human brain cDNA library; made in house; host or cells: Sf9 insect cells (baculovirus, pAcHLT transfer vector)
# T1 sequence (P08235 1-984): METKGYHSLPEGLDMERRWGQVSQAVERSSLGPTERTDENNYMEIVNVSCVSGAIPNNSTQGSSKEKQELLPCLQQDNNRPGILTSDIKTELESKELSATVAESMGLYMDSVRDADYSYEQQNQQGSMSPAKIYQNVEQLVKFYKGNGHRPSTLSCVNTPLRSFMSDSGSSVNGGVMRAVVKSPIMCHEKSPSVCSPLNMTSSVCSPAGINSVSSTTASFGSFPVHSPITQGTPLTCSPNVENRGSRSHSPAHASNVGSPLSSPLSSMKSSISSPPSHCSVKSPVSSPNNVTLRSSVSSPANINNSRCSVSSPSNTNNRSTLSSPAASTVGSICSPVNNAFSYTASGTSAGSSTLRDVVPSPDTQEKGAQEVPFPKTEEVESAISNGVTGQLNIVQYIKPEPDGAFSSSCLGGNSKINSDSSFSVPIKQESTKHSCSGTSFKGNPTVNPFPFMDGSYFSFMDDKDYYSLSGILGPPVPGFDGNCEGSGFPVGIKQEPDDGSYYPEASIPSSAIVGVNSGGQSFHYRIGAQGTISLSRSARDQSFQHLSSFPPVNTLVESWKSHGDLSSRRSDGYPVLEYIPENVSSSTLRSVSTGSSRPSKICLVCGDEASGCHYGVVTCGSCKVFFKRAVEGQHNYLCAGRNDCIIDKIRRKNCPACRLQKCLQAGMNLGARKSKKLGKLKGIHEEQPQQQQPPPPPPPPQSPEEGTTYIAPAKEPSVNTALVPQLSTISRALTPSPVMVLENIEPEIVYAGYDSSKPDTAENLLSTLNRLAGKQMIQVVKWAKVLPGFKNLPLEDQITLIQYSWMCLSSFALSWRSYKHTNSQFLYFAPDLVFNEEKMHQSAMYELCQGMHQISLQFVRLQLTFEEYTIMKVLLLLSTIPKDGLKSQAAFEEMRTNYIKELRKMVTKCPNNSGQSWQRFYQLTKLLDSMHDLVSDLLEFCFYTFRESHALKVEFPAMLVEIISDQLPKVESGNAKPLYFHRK
# Test: Mineralocorticoid Receptor Binding Assay ([3H]-aldosterone displacement)
# Details: full length human MR expressed in Sf9 cells, 0.5 nM [3H]-aldosterone
# Outline: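 Full-length human MR expressed in Sf9 cells; lysate (20-25 μg protein) incubated with 0.5 nM [3H]-aldosterone and test compound in molybdate/Tris/phosphate/glycerol buffer pH 7.5, 16 h at 4 °C. Bound ligand measured by filtration and scintillation counting; IC50 converted to Ki via Cheng-Prusoff.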
row,SMILES,Ki
1,"Cc1cc(C2(c3cc(C)c(O)c(C)c3)C(=O)N(Cc3cccc4ccccc34)c3ccccc32)cc(C)c1O [Example 10, 3,3-Bis-(4-hydroxy-3,5-dimethyl-phenyl)-1-naphthalen-1-ylmethyl-1,3-dihydro-indol-2-one]",≤ 500 nM
2,"COc1ccc2c(c1)C(c1cc(C)c(O)c(C)c1)(c1cc(C)c(O)c(C)c1)C(=O)N2Cc1ccccc1 [Example 16, 1-Benzyl-3,3-bis-(4-hydroxy-3,5-dimethyl-phenyl)-5-methoxy-1,3-dihydro-indol-2-one]",≤ 500 nM
3,"COc1ccccc1C(=O)CN1C(=O)C(c2cc(C)c(O)c(C)c2)(c2cc(C)c(O)c(C)c2)c2ccccc21 [Example 44, 3,3-Bis-(4-hydroxy-3,5-dimethyl-phenyl)-1-[2-(2-methoxy-phenyl)-2-oxo-ethyl]-1,3-dihydro-indol-2-one]",≤ 500 nM
4,"COc1ccc(OC)c(C(=O)CN2C(=O)C(c3cc(C)c(O)c(C)c3)(c3cc(C)c(O)c(C)c3)c3ccccc32)c1 [Example 49, 1-[2-(2,5-Dimethoxy-phenyl)-2-oxo-ethyl]-3,3-bis-(4-hydroxy-3,5-dimethyl-phenyl)-1,3-dihydro-indol-2-one]",≤ 500 nM
5,"COC(=O)c1cccc(CN2C(=O)C(c3cc(C)c(O)c(C)c3)(c3cc(C)c(O)c(C)c3)c3ccccc32)c1 [Example 55, 3-[3,3-Bis-(4-hydroxy-3,5-dimethyl-phenyl)-2-oxo-2,3-dihydro-indol-1-ylmethyl]-benzoic acid methyl ester]",≤ 500 nM
6,"Cc1cc(C2(c3cc(C)c(O)c(C)c3)C(=O)N(Cc3ccc(C(F)(F)F)cc3)c3ccccc32)cc(C)c1O [Example 57, 3,3-Bis-(4-hydroxy-3,5-dimethyl-phenyl)-1-(4-trifluoromethyl-benzyl)-1,3-dihydro-indol-2-one]",≤ 500 nM
7,"Cc1cc(C2(c3cc(C)c(O)c(C)c3)C(=O)N(Cc3ccc(Br)cc3F)c3ccccc32)cc(C)c1O [Example 81, 1-(4-Bromo-2-fluoro-benzyl)-3,3-bis-(4-hydroxy-3,5-dimethyl-phenyl)-1,3-dihydro-indol-2-one]",≤ 500 nM
8,"Cc1cc(C2(c3cc(C)c(O)c(C)c3)C(=O)N(Cc3ccc(O)cc3)c3ccccc32)cc(C)c1O [Example 88, 1-(4-Hydroxy-benzyl)-3,3-bis-(4-hydroxy-3,5-dimethyl-phenyl)-1,3-dihydro-indol-2-one]",≤ 500 nM
9,"Cc1nc(CN2C(=O)C(c3cc(C)c(O)c(C)c3)(c3cc(C)c(O)c(C)c3)c3ccccc32)cs1 [Example 89, 3,3-Bis-(4-hydroxy-3,5-dimethyl-phenyl)-1-(2-methyl-thiazol-4-ylmethyl)-1,3-dihydro-indol-2-one]",≤ 500 nM
10,"Cc1cc(C2(c3cc(C)c(O)c(C)c3)C(=O)N(Cc3ccccn3)c3ccccc32)cc(C)c1O [Example 100, 3,3-Bis-(4-hydroxy-3,5-dimethyl-phenyl)-1-pyridin-2-ylmethyl-1,3-dihydro-indol-2-one]",≤ 500 nM
11,"Cc1cc(C2(c3cc(C)c(O)c(C)c3)C(=O)N(Cc3cc(C(F)(F)F)ccc3F)c3ccccc32)cc(C)c1O [Example 112, 1-(2-Fluoro-5-trifluoromethyl-benzyl)-3,3-bis-(4-hydroxy-3,5-dimethyl-phenyl)-1,3-dihydro-indol-2-one]",≤ 500 nM
12,"Cc1cc(C2(c3cc(C)c(O)c(C)c3)C(=O)N(C3CCCC3)c3ccccc32)cc(C)c1O [Example 114, 1-Cyclopentyl-3,3-bis-(4-hydroxy-3,5-dimethyl-phenyl)-1,3-dihydro-indol-2-one]",≤ 500 nM
13,"COc1ccc(N2C(=O)C(c3cc(C)c(O)c(C)c3)(c3cc(C)c(O)c(C)c3)c3ccccc32)cc1 [Example 128, 3,3-Bis-(4-hydroxy-3,5-dimethyl-phenyl)-1-(4-methoxy-phenyl)-1,3-dihydro-indol-2-one]",≤ 500 nM

# Next, values leading:
row,Ki,SMILES
1,≤ 500 nM,Cc1cc(C2(c3cc(C)c(O)c(C)c3)C(=O)N(Cc3ccc(F)cc3)c3ccccc32)cc(C)c1O [Example 2]
2,≤ 500 nM,"Cc1cc(C2(c3cc(C)c(O)c(C)c3)C(=O)N(Cc3ccc(C(C)(C)C)cc3)c3ccccc32)cc(C)c1O [Example 7, 1-(4-tert-Butyl-benzyl)-3,3-bis-(4-hydroxy-3,5-dimethyl-phenyl)-1,3-dihydro-indol-2-one]"
3,≤ 500 nM,"Cc1cc(C2(c3ccc(O)cc3)C(=O)N(Cc3ccccc3)c3ccccc32)cc(C)c1O (stereo not drawn) [Example 29, 1-Benzyl-3-(4-hydroxy-3,5-dimethyl-phenyl)-3-(4-hydroxy-phenyl)-1,3-dihydro-indol-2-one]"
4,≤ 500 nM,"COc1cccc(C(=O)CN2C(=O)C(c3cc(C)c(O)c(C)c3)(c3cc(C)c(O)c(C)c3)c3ccccc32)c1 [Example 45, 3,3-Bis-(4-hydroxy-3,5-dimethyl-phenyl)-1-[2-(3-methoxy-phenyl)-2-oxo-ethyl]-1,3-dihydro-indol-2-one]"
5,≤ 500 nM,"COc1ccc(C(=O)CN2C(=O)C(c3cc(C)c(O)c(C)c3)(c3cc(C)c(O)c(C)c3)c3ccccc32)cc1 [Example 46, 3,3-Bis-(4-hydroxy-3,5-dimethyl-phenyl)-1-[2-(4-methoxy-phenyl)-2-oxo-ethyl]-1,3-dihydro-indol-2-one]"
6,≤ 500 nM,"Cc1cc(C2(c3cc(C)c(O)c(C)c3)C(=O)N(Cc3ccccc3C#N)c3ccccc32)cc(C)c1O [Example 51, 2-[3,3-Bis-(4-hydroxy-3,5-dimethyl-phenyl)-2-oxo-2,3-dihydro-indol-1-ylmethyl]-benzonitrile]"
7,≤ 500 nM,"Cc1cc(C2(c3cc(C)c(O)c(C)c3)C(=O)N(Cc3ccc(Cl)c(Cl)c3)c3ccccc32)cc(C)c1O [Example 52, 1-(3,4-Dichloro-benzyl)-3,3-bis-(4-hydroxy-3,5-dimethyl-phenyl)-1,3-dihydro-indol-2-one]"
8,≤ 500 nM,"Cc1cc(C2(c3cc(C)c(O)c(C)c3)C(=O)N(Cc3cccc(Cl)c3)c3ccccc32)cc(C)c1O [Example 60, 1-(3-Chloro-benzyl)-3,3-bis-(4-hydroxy-3,5-dimethyl-phenyl)-1,3-dihydro-indol-2-one]"
9,≤ 500 nM,"Cc1cc(C2(c3cc(C)c(O)c(C)c3)C(=O)N(Cc3cccc(C(F)(F)F)c3)c3ccccc32)cc(C)c1O [Example 61, 3,3-Bis-(4-hydroxy-3,5-dimethyl-phenyl)-1-(3-trifluoromethyl-benzyl)-1,3-dihydro-indol-2-one]"
10,≤ 500 nM,"Cc1ccc2c(c1)C(c1cc(C)c(O)c(C)c1)(c1cc(C)c(O)c(C)c1)C(=O)N2Cc1csc(C)n1 [Example 93, 3,3-Bis-(4-hydroxy-3,5-dimethyl-phenyl)-5-methyl-1-(2-methyl-thiazol-4-ylmethyl)-1,3-dihydro-indol-2-one]"
11,≤ 500 nM,"Cc1cc(C2(c3cc(C)c(O)c(C)c3)C(=O)N(CC3CC3)c3ccccc32)cc(C)c1O [Example 105, 1-Cyclopropylmethyl-3,3-bis-(4-hydroxy-3,5-dimethyl-phenyl)-1,3-dihydro-indol-2-one]"
12,≤ 500 nM,"Cc1cc(C2(c3cc(C)c(O)c(C)c3)C(=O)N(Cc3c(C)cccc3C)c3ccccc32)cc(C)c1O [Example 107, 1-(2,6-Dimethyl-benzyl)-3,3-bis-(4-hydroxy-3,5-dimethyl-phenyl)-1,3-dihydro-indol-2-one]"
13,≤ 500 nM,"Cc1cc(C2(c3cc(C)c(O)c(C)c3)C(=O)N(Cc3ccc(N)cc3)c3ccccc32)cc(C)c1O [Example 117, 11-(4-Amino-benzyl)-3,3-bis-(4-hydroxy-3,5-dimethyl-phenyl)-1,3-dihydro-indol-2-one]"
14,≤ 500 nM,"Cc1cc(C2(c3cc(C)c(O)c(C)c3)C(=O)N(Cc3cccc(N)c3)c3ccccc32)cc(C)c1O [Example 118, 1-(3-Amino-benzyl)-3,3-bis-(4-hydroxy-3,5-dimethyl-phenyl)-1,3-dihydro-indol-2-one]"
15,≤ 500 nM,"Cc1cc(C2(c3cc(C)c(O)c(C)c3)C(=O)N(CCc3scnc3C)c3ccccc32)cc(C)c1O [Example 121, 3,3-Bis-(4-hydroxy-3,5-dimethyl-phenyl)-1-[2-(4-methyl-thiazol-5-yl)-ethyl]-1,3-dihydro-indol-2-one]"
16,≤ 500 nM,"COc1cccc(N2C(=O)C(c3cc(C)c(O)c(C)c3)(c3cc(C)c(O)c(C)c3)c3ccccc32)c1 [Example 134, 3,3-Bis-(4-hydroxy-3,5-dimethyl-phenyl)-1-(3-methoxy-phenyl)-1,3-dihydro-indol-2-one]"
17,≤ 500 nM,"Cc1cc(C2(c3cc(C)c(O)c(C)c3)C(=O)N(c3cccnc3)c3ccccc32)cc(C)c1O [Example 135, 3,3-Bis-(4-hydroxy-3,5-dimethyl-phenyl)-1-pyridin-3-yl-1,3-dihydro-indol-2-one]"
